Patent US20220088014A1 (priority 2019, published 2022)
Where two headings read alike, the source gives them in different places.

Assays:
[1] = Cue-induced reinstatement (relapse) in heroin addicted rats; format: in vivo, male Long-Evans hooded rats
[2] = Pretreatment study: effect on heroin self-administration; format: in vivo, rhesus monkeys
[3] = rat, in vivo
[4] = Dose-finding study: lever pressing for food (FR 10); details: two monkeys
[5] = Rat tolerance/dependence study, 28 day repeated dosing and withdrawal
[6] = IV self-administration substitution study in heroin-maintained primates (FR 30)

## O=C1CN2c3c(cccc3[C@@H]3CN(CCCOc4ccc(F)cc4)CC[C@@H]32)N1 [Example 1, (6bR,10aS)-8-(3-(4-fluorophenoxy)propyl)-6b,7,8,9,10,10a-hexahydro-1H-pyrido[3′,4′:4,5]pyrrolo[1,2,3-de]quinoxalin-2(3H)-one]
[1]; 1 mg/kg s.c. 30 minutes pre-session
  Active lever presses during the reinstatement test session: 22.64
[1]; 3 mg/kg s.c. 30 minutes pre-session
  Active lever presses during the reinstatement test session: 31.17
[1]; 10 mg/kg s.c. 30 minutes pre-session
  Active lever presses during the reinstatement test session: 29.50
[2]; pretreatment 0.1 mg/kg IV 15 minutes prior
  Heroin infusions per session (mean ± SEM, N = 4): 24.8 ± 0.8
[2]; pretreatment 1.0 mg/kg IV 15 minutes prior
  Heroin infusions per session (mean ± SEM, N = 4): 23.3 ± 2.8
[2]; pretreatment 1.0 mg/kg SC (100% PEG) 15 minutes prior
  Heroin infusions per session (mean ± SEM, N = 4): 24.5 ± 1.9
[3]; po, 10 mg/kg
  t-1/2: 3.1 h
[3]; sc, 3 mg/kg
  t-1/2: 9.5 h
[4]; 0.0001 mg/kg IV
  average rate of responding for food: 0.94±0.01 responses per second
[4]; 0.001 mg/kg IV
  average rate of responding for food: 0.86±0.11 responses per second
[4]; 0.01 mg/kg IV
  average rate of responding for food: 0.97±0.21 responses per second
[4]; 0.1 mg/kg IV
  average rate of responding for food: 0.98±0.24 responses per second
[5]; 0.3 mg/kg s.c. four times per day
  predominant behavioral and physical effects during the dosing phase: hunched posture, Straub tail and piloerection
[5]; 0.3 and 3 mg/kg s.c. four times per day
  tolerance during dosing for 28 days: does not produce tolerance
[5]; 0.3 and 3 mg/kg s.c. four times per day, 28 days
  physical dependence upon cessation of dosing: not to produce a syndrome of physical dependence
[5]; 0.3 and 3 mg/kg s.c. four times per day, on-dose or withdrawal phase
  effect on animal body weight, food and water intake or body temperature: no significant effect
[5]; higher dose, 3 mg/kg s.c. four times per day
  main behavioral and physical signs during the dosing phase: hunched posture, subdued behavior, Straub tail, tail rattle and piloerection
[6]; 0.01 mg/kg/infusion IV
  Infusions per session (mean ± SEM, N = 4): 0.6 ± 0.2
[6]; 0.1 mg/kg/infusion IV
  Infusions per session (mean ± SEM, N = 4): 1.5 ± 0.3

## CN1CC[C@]23c4c5ccc(O)c4O[C@H]2[C@@H](O)C=C[C@H]3[C@H]1C5 [Morphine, morphine, reference compound]
[5]; 30 mg/kg orally twice per day, 28 days
  tolerance and dependence: clear signs of tolerance and dependence
